Test results from the NIST ThermoML archive (doi:10.1016/j.jct.2015.05.024).
Numbers after ± are expanded uncertainties.

Assays:
[1] = 100 kPa, Liquid; for mass density: Vibrating tube method; for speed of sound: Frequency=5 MHz, Pulse-echo method
[2] = xn = mol fraction of the nth substance listed; conditions: 100 kPa, Liquid, x2 = 0; for mass density: Vibrating tube method; for speed of sound: Frequency=5 MHz, Pulse-echo method

OCCOCCOCCO [triethylene glycol] showed a mass density ([1]; 278.15 K) of 1135.14 ± 0.34 kg/m3, a mass density ([1]; 283.15 K) of 1131.29 ± 0.34 kg/m3 and a speed of sound ([1]; 288.15 K) of 1643.9 ± 1.4 m/s. The mass density ([1]; 288.15 K) was 1127.43 ± 0.33 kg/m3, the speed of sound ([1]; 293.15 K) was 1629 ± 1.4 m/s and the mass density ([1]; 293.15 K) was 1123.56 ± 0.33 kg/m3. It also gave a speed of sound ([1]; 298.15 K) of 1613.5 ± 1.4 m/s, a mass density ([1]; 298.15 K) of 1119.69 ± 0.33 kg/m3 and a speed of sound ([1]; 303.15 K) of 1599.1 ± 1.4 m/s. The mass density ([1]; 303.15 K) was 1115.81 ± 0.32 kg/m3, the speed of sound ([1]; 308.15 K) was 1584.6 ± 1.4 m/s and the mass density ([1]; 308.15 K) was 1111.92 ± 0.32 kg/m3. For the same molecule, the speed of sound ([1]; 313.15 K) was 1569.1 ± 1.4 m/s, the mass density ([1]; 313.15 K) was 1108.03 ± 0.32 kg/m3 and the speed of sound ([1]; 318.15 K) was 1554.7 ± 1.4 m/s. It also gave a mass density ([1]; 318.15 K) of 1104.13 ± 0.31 kg/m3, a mass density ([1]; 323.15 K) of 1100.22 ± 0.31 kg/m3 and a mass density ([1]; 328.15 K) of 1096.3 ± 0.31 kg/m3. For the same molecule, the mass density ([1]; 333.15 K) was 1092.38 ± 0.3 kg/m3.

O [water] gave a mass density ([1]; 278.15 K) of 999.965 ± 0.11 kg/m3, a mass density ([1]; 283.15 K) of 999.698 ± 0.11 kg/m3 and a speed of sound ([1]; 313.15 K) of 1528.8 ± 0.99 m/s. For the same molecule, the speed of sound ([1]; 318.15 K) was 1536.7 ± 0.99 m/s, the mass density ([1]; 323.15 K) was 988.027 ± 0.11 kg/m3 and the mass density ([1]; 328.15 K) was 985.682 ± 0.11 kg/m3. The mass density ([1]; 333.15 K) was 983.186 ± 0.11 kg/m3.

In the case of O [water] + OCCOCCOCCO, the mass density ([2]; 278.15 K) is reported as 999.965 ± 0.11 kg/m3, the mass density ([2]; 283.15 K) is reported as 999.698 ± 0.11 kg/m3 and the speed of sound ([2]; 313.15 K) is reported as 1528.8 ± 0.99 m/s. It also gave a speed of sound ([2]; 318.15 K) of 1536.7 ± 0.99 m/s, a mass density ([2]; 323.15 K) of 988.027 ± 0.11 kg/m3 and a mass density ([2]; 328.15 K) of 985.682 ± 0.11 kg/m3. It also gave a mass density ([2]; 333.15 K) of 983.186 ± 0.11 kg/m3.
